Row | Structure (SMILES) | melting point [°C]
1 | [C-]#[N+]CSc1c(OC)cccc1OC [Example 16, (2,6-dimethoxyphenyl)(isocyanomethyl)sulfane] | 47 to 48
2 | [C-]#[N+]CSc1c(OC)cccc1C(F)(F)F [Example 17, 2-((Isocyanomethyl)sulfanyl)-1-methoxy-3-(trifluoromethyl)benzene] | 54 to 55

Source: patent US20150239835A1, “COMPOSITION, SYNTHESIS, AND USE OF A NEW CLASS OF ISONITRILES” (DUQUESNE UNIVERSITY OF THE HOLY GHOST, priority 2014, published 2015)
